Data as given in patent publication US20050209207A1, “Aerosol formulations containing esters of 3,17-dihydroxy oestratriene derivatives for pulmonary delivery” (priority 2002, published 2005).
Like-named read-outs stand apart in the source and are kept apart here.

Key:
[1] = transdermal patches; cited from earlier work
[2] = porous particles, Andersen cascade Impaction; cited from earlier work
[3] = cited from earlier work
[4] = intranasal aqueous solution with dimethyl-β-cyclodextrin, compared to the IV route; cited from earlier work
[5] = 0.1% w/v drug, HFA134a
[6] = Andersen Cascade Impactor (ACI) deposition studies of HFA solution pMDIs; assay type: physicochemical
Description: All impaction studies were conducted with formulations contained in cut edge anodised aluminium cans fitted with 50 μl or 100 μl valves. The studies were carried out using an Andersen Cascade Impactor (ACI) fitted with a USP XXII metal throat entry port. The ACI was operated at a flow rate of 28.3±2 l min^−1. All solution HFA formulations were discharged into the ACI through an actuator having an orifice diameter of 0.22 mm. Deposition of the drug on each ACI plate was determined by high pressure liquid chromatography (HPLC). MMAD values and corresponding geometric standard deviations (GSD) were calculated from plots of the cumulative percentage undersize of drug collected on each ACI plate (probit scale), against the upper cut off diameter for each respective ACI plate (log 10 scale).

[7] = 0.1% w/v (50 μg/dose), 5% w/w ethanol, 0.1% w/w glycerol, HFA134a, ten shots

Compound: 17β-Oestradiol
- mean serum oestradiol levels [1]: 70 to 90 pg/mL
- fine particle fraction [2]: approximately 33%
- peak plasma concentration ([3]; sublingual, 0.25 mg): 294 pg/mL
- peak plasma concentration ([3]; sublingual, 0.5 mg): 245 pg/mL
- peak plasma concentration ([3]; sublingual, 1.0 mg): 451 pg/mL
- time to peak plasma concentration ([3]; sublingual, 0.25, 0.5 and 1.0 mg): ≤ 1 h
- 17β-oestradiol levels ([3]; sublingual, after 6 hours): less than 60 pg/ml
- bioavailability [4]: approximately 65%

Compound: C[C@]12CC[C@@H]3c4ccc(O)cc4CC[C@H]3[C@@H]1CC[C@@H]2OC(=O)CCC1CCCC1 [Formulation 17-Cypionate]
- Solubility ([5]; 5% w/w ethanol, 0.1% w/w glycerol): Insoluble

Compound: β-oestradiol-3,17-dipropionate [β-oestradiol 3,17-dipropionate]
- MMAD ([6]; 200 μg/dose (0.4% w/v), 0% w/w ethanol, HFA 134a): 0.90 μm
- MMAD ([6]; 200 μg/dose (0.4% w/v), 2% w/w ethanol, HFA 134a): 1.50 μm
- MMAD ([6]; 200 μg/dose (0.4% w/v), 5% w/w ethanol, HFA 134a): 1.50 μm
- MMAD ([6]; 500 μg/dose (1% w/v), 5% w/w ethanol, HFA 134a): 1.90 μm

Compound: C[C@]12CC[C@@H]3c4ccc(OC(=O)c5ccccc5)cc4CC[C@H]3[C@@H]1CC[C@@H]2O [Formulation 3-Benzoate]
- Solubility ([5]; 13% w/w ethanol, no glycerol): Insoluble

Compound: CCCCCCC(=O)O[C@H]1CC[C@H]2[C@@H]3CCc4cc(O)ccc4[C@H]3CC[C@]12C [Formulation 17-Enanthate, β-oestradiol enanthate]
- GSD [6, 7]: 1.7
- MMAD [6, 7]: 1.5 μm
- fine particle dose (FPD) [6, 7]: 38.8 µg
- fine particle fraction (FPF) [6, 7]: 78.5%
